Laboratory results: patent publication US6426355B1, “Heterocyclic carboxamide-containing thiourea inhibitors of herpes viruses containing phenylenediamine group” (American Home Products, priority 1998, dated 2002)
Values after ≈ are worked out from the molar mass of the structure shown.

How the values were obtained:
HSV-1 = test: HSV Antiviral (ELISA) assay; format: cell-based; details: HSV-1 in Vero cells
In short: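 Replication measured as glycoprotein D signal in fixed cells: anti-gD antibody plus β-galactosidase-linked secondary, fluorogenic substrate read at 365/450 nm. Vero cells (2% FBS DMEM) received compound 30 min pre-infection, HSV-1 MOI 0.006, ~24 h incubation; IC50 relative to no-compound fluorescence.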

[1] = tested on: HCMV recombinant mutant virus (RV145); test: HCMV microtiter plate assay (beta-glucuronidase reporter); format: cell-based, Human Cytomegalovirus; details: HCMV in human foreskin fibroblasts
In short: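 Replication was read out as virus-encoded β-glucuronidase activity, measured with a chromogenic or fluorogenic glucuronide substrate in cell lysates at 96 h post-infection. Infection of human foreskin fibroblasts with RV145 took place with compound present. IC50 was derived from a range of inhibitor amounts.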

VZV strain Ellen = test: VZV Antiviral (ELISA) assay; format: cell-based; details: VZV strain Ellen in HFF cells; for % inhibition 10 ug/ml VZV: at 10 ug/ml
In short: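 Antiviral IC50 is derived by comparing fluorescence with and without compound after a three-day culture of VZV-infected plus uninfected foreskin fibroblasts. Replication is quantified by ELISA against glycoprotein II, using a β-galactosidase secondary and methyl umbelliferyl-β-D-galactoside.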

| Compound | IC50 (ug/ml) HSV (HSV-1) [µg/mL] | IC50 (ug/ml) HCMV [1] [µg/mL] | IC50 (ug/ml) VZV (VZV strain Ellen) [µg/mL] | % inhibition 10 ug/ml VZV (VZV strain Ellen) [%] |
| --- | --- | --- | --- | --- |
| COc1cc(OC)c(NC(=S)Nc2ccc(NC(=O)c3ccc(Cl)o3)cc2)cc1Cl [Example 163] | 3 (≈ 6.43 µM) | 7 (≈ 15 µM) | >10 | 30 |
| COc1cc(OC)c(NC(=S)Nc2ccc(NC(=O)c3ccoc3)cc2)cc1Cl [Example 166] | 9 (≈ 20.8 µM) | >10 | >10 | 30 |
| COc1cc(OC)c(NC(=S)Nc2ccc(NC(=O)c3occc3C)cc2)cc1Cl [Example 167] | 10 (≈ 22.4 µM) | 9 (≈ 20.2 µM) | 3.8 (≈ 8.52 µM) | 70 |
| COc1cc(OC)c(NC(=S)Nc2ccc(NC(=O)c3ccc(Br)o3)cc2)cc1Cl [Example 168] | 3 (≈ 5.87 µM) | 2.5 (≈ 4.89 µM) | >10 | – |
| COc1cc(OC)c(NC(=S)Nc2ccc(NC(=O)c3cc(Br)co3)cc2)cc1Cl [Example 169] | 3 (≈ 5.87 µM) | 4 (≈ 7.83 µM) | >10 | 26 |
| COc1cc(OC)c(NC(=S)Nc2ccc(NC(=O)c3ccco3)cc2)cc1Cl [Example 170] | >10 | 0.2 (≈ 0.463 µM) | >10 | 32 |
| COc1cc(OC)c(NC(=S)Nc2ccc(NC(=O)c3cncc4ccccc34)cc2)cc1Cl [Example 172] | >10 | >10 | >10 | 25 |
| COc1cc(OC)c(NC(=S)Nc2ccc(NC(=O)c3csnn3)cc2)cc1Cl [Example 173] | >10 | 0.08 (≈ 0.178 µM) | >10 | 31 |
| COc1cc(OC)c(NC(=S)Nc2ccc(NC(=O)c3c[nH]nn3)cc2)cc1Cl [Example 174] | 50 (≈ 116 µM) | 6 (≈ 13.9 µM) | >10 | 8 |
| COc1cc(OC)c(NC(=S)Nc2ccc(NC(=O)c3sccc3Br)cc2)cc1Cl [Example 175] | 2 (≈ 3.8 µM) | >10 | >10 | 24 |
| O=C(Nc1ccc(NC(=S)Nc2ccc(Cl)c(C(F)(F)F)c2)cc1)c1csnn1 [Example 200] | >10 | 0.02 (≈ 0.0437 µM) | >15 | 55 |
| COc1c(Cl)cc(NC(=S)Nc2ccc(NC(=O)c3csnn3)cc2)cc1Cl [Example 201] | >10 | 0.023 (≈ 0.0506 µM) | 8 (≈ 17.6 µM) | 78 |
| COc1cc(OC)c(NC(=S)Nc2ccc(NC(=O)c3ccccn3)cc2)cc1Cl [Example 224] | 3.5 (≈ 7.9 µM) | 0.8 (≈ 1.81 µM) | >10 | 30 |
| COc1cc(OC)c(NC(=S)Nc2ccc(NC(=O)c3ccnc4ccccc34)cc2)cc1Cl [Example 225] | 1 (≈ 2.03 µM) | >10 | >10 | 30 |
| Cc1ccc(NC(=S)Nc2ccc(NC(=O)c3csnn3)cc2)cc1Cl [Example 230] | >10 | 0.015 (≈ 0.0371 µM) | >10 | – |
| Cc1ccc(NC(=S)Nc2ccc(NC(=O)c3ccco3)cc2)cc1Cl [Example 233] | >10 | 0.09 (≈ 0.233 µM) | >10 | 30 |

| Compound | IC50 (ug/ml) HSV (HSV-1) [µg/mL] | IC50 (ug/ml) HCMV [1] [µg/mL] | IC50 (ug/ml) VZV (VZV strain Ellen) [µg/mL] | % inhibition 10 ug/ml VZV (VZV strain Ellen) [%] |
| --- | --- | --- | --- | --- |
| Cc1ccc(NC(=S)Nc2ccc(NC(=O)c3ccccn3)cc2)cc1Cl [Example 236] | >10 | 0.7 (≈ 1.76 µM) | >10 | 40 |
| CN(c1ccc(NC(=S)Nc2ccc(NC(=O)c3csnn3)cc2)cc1Cl)C1CCCCC1 [Example 237] | >10 | 0.02 (≈ 0.0399 µM) | >10 | 17 |
| CN(c1ccc(NC(=S)Nc2ccc(NC(=O)c3ccco3)cc2)cc1Cl)C1CCCCC1 [Example 246] | >10 | 0.05 (≈ 0.104 µM) | 4 (≈ 8.28 µM) | 37 |
| CN(c1ccc(NC(=S)Nc2ccc(NC(=O)c3ccccn3)cc2)cc1Cl)C1CCCCC1 [Example 249] | >10 | 0.4 (≈ 0.81 µM) | >10 | 59 |
| COc1cc(OC)c(NC(=S)Nc2ccc(NC(=O)c3snnc3-c3ccccc3)cc2)cc1Cl [Example 264] | >10 | >10 | >10 | 28 |
| COc1cc(OC)c(NC(=S)Nc2ccc(NC(=O)c3nnsc3C)cc2)cc1Cl [Example 279] | >10 | >10 | >10 | – |
| COc1cc(OC)c(NC(=S)Nc2ccc(NC(=O)c3nnsc3-c3ccoc3)cc2)cc1Cl [Example 280] | >10 | >10 | >10 | – |
| COc1cc(OC)c(NC(=S)Nc2ccc(NC(=O)c3nnsc3-c3ccccc3)cc2)cc1Cl [Example 281] | >10 | >10 | >10 | 31 |
| COc1cc(OC)c(NC(=S)Nc2ccc(NC(=O)c3snnc3-c3ccoc3)cc2)cc1Cl [Example 288] | >10 | 4 (≈ 7.75 µM) | >10 | 30 |
| COc1cc(OC)c(NC(=S)Nc2ccc(NC(=O)c3cnns3)cc2)cc1Cl [Example 323] | 3 (≈ 6.67 µM) | 0.03 (≈ 0.0667 µM) | >10 | 45 |
| CN(C)c1ccc(NC(=S)Nc2ccc(NC(=O)c3ccco3)cc2)cc1Cl [Example 330] | >10 | 0.15 (≈ 0.362 µM) | >10 | 29 |
| CN(c1ccc(NC(=S)Nc2ccc(NC(=O)c3ccco3)cc2)cc1Cl)C1CCN(Cc2ccccc2)C1 (stereo not shown) [Example 331] | 1.8 (≈ 3.21 µM) | 2 (≈ 3.57 µM) | 5 (≈ 8.93 µM) | 98 |
| CN1CCC(N(C)c2ccc(NC(=S)Nc3ccc(NC(=O)c4csnn4)cc3)cc2Cl)C1 (stereo not shown) [Example 341] | 2 (≈ 3.98 µM) | 0.15 (≈ 0.299 µM) | >10 | 50 |
| CN1CCC(N(C)c2ccc(NC(=S)Nc3ccc(NC(=O)c4ccco4)cc3)cc2Cl)CC1 [Example 344] | 4 (≈ 8.03 µM) | 0.25 (≈ 0.502 µM) | 7 (≈ 14.1 µM) | 72 |
| CN(C)c1ccc(NC(=S)Nc2ccc(NC(=O)c3ccccn3)cc2)cc1Cl [Example 350] | >10 | 1 (≈ 2.35 µM) | >10 | 50 |
| CSc1ccc(NC(=S)Nc2ccc(NC(=O)c3ccccn3)cc2)cc1Cl [Example 351] | 3 (≈ 6.99 µM) | 0.3 (≈ 0.699 µM) | 3.5 (≈ 8.16 µM) | 90 |
